Biological target: T1, BIG1 (DCB-HUS-Sec7 construct) (Homo sapiens, UniProt Q9Y6D6)
T1 construct: BIG1^Sec7 (691-889), BIG1^DcbHusSec7 (2-888); made in house
T1 sequence (Q9Y6D6 2-888): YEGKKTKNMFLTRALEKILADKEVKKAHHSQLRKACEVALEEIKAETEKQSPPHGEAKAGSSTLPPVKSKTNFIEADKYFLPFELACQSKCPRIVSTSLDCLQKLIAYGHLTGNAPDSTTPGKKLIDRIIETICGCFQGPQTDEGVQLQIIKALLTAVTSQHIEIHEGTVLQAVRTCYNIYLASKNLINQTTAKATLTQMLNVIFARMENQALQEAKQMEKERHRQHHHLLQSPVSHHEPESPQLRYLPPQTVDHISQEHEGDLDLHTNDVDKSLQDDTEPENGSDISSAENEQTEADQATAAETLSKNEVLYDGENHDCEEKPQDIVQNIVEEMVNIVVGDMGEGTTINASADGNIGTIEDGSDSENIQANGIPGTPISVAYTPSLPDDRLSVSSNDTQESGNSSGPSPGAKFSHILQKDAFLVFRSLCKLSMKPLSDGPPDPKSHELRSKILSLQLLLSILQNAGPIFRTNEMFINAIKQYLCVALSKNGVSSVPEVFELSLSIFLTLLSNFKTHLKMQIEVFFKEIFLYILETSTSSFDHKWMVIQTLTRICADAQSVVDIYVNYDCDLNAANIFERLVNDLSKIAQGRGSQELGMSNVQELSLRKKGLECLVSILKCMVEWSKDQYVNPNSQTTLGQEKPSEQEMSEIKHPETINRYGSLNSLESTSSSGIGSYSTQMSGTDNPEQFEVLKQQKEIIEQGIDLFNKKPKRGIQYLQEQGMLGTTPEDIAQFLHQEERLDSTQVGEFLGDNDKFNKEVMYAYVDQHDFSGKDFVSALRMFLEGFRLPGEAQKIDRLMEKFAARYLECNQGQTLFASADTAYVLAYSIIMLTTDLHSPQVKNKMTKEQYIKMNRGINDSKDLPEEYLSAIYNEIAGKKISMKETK
Test: Nucleotide exchange kinetics on liposomes, activation of myristoylated Arf1
Assay type: biochemical
Details: 50 μM

Effect on ArfGEF activity on liposomes: no effect
SMILES: Cc1ccc2oc(C(F)(F)F)cc(=O)c2c1[N+](=O)[O-] [Bragsin1, 6-methyl-5-nitro-2-(trifluoromethyl)-4H-chromen-4-one]

Reference: patent US12152012B2, “BRAG2 inhibitors and applications thereof” (CENTRE NATIONAL DE LA RECHERCHE SCIENTIFIQUE, priority 2018, dated 2024)
